Assay [1] has as its system pTyr37-H2B upstream of the Hist1 cluster. Nature of the assay: Native ChIP-qPCR with pTyr37-H2B antibody at Hist1 Site I and II in synchronized MEFs. Type of assay: cell-based, mouse. The settings on record: 6.30 hours post-release. The method, then: FIG. 1A is a diagram illustrating the position of histone genes in mouse Hist1 subcluster 1 showing two pTyr37-H2B binding sites. Starting nucleotide position is shown above. Subclusterl is conserved between human and mouse. FIG. 1B-1D are bar graphs showing Native Chromatin immunoprecipitation (ChIP) (% input DNA) in synchronized MEFs treated with WEE1 inhibitor or untreated and harvested at 0 and 6.30 hours post-release. Native ChIP was performed using pTyr37-H2B or IgG antibodies followed by quantitative PCR using primers corresponding to Site I (FIG. 1B), Site II (FIG. 1C) and control site (FIG. 1D). Data shown are representative of three independent experiments. *p=0.001; **p=0.006. FIG. 1E is bar graph showing ChIP in synchronized MEFs harvested at 0 and 6.30 hours post-release using WEE1 or IgG antibodies followed by quantitative PCR using primers corresponding to Site II. […] FIG. 1F is bar graph showing ChIP in cells transfected with control or WEE1 siRNAs performed using pTyr37-H2B antibodies followed by quantitative PCR using primers corresponding to Site II. […]
As a first step, extensive standardization of pTyr37-H2B antibodies were performed for its usage in ChIP. […] Pellets were resuspended and the resulting DNA was quantified on a NanoDrop spectrophotometer. Extrapolation to the original chromatin volume allowed quantitation of the total chromatin yield. […]

The next assay deals with WEE1 (Homo sapiens, UniProt P30291). Nature of the assay: H4 Tyr88 peptide ELISA in vitro kinase assay with purified WEE1. Details: GST; purchased Invitrogen. The conditions noted are these: read at 450 nm. Type of assay: biochemical. The method, then: Biotinylated unphosphorylated and Tyr88-phosphorylated H4 peptides were immobilized on streptavdin 96-well plates. […] ELISA was performed as described in text.
WEE1 and Ack1 are two non-receptor tyrosine kinases or NRTKs that have known nuclear functions. To determine whether WEE1 and Ack1 can directly target H4 for Tyr88-phosphorylation, this study performed in vitro kinase assay. In brief, the Streptavidin coated 96-well plates (R&D systems) were incubated with biotinylated H4-derived peptide […] (SEQ ID NO: 64) for 1 hour. The plates were washed and the purified WEE1 or Ack1 were added in kinase buffer (20 mM HEPES, 150 mM NaCl, 0.5% Triton X-100, 10% Glycerol, phosphatase and protease inhibitors) containing ATP and MgCl2. After 2 hours of incubation, plates were washed with phosphate buffered saline containing 0.1% Tween 20 (PBST) and blocked in 3% BSA. The pY88-H4 antibodies (at 1:500 dilution) were added and incubated for 1 hour. Unbound antibodies were washed and HRP-conjugated anti-mouse secondary Antibodies (1:2000) were added. Magnitude of phosphorylation was detected using developer solution (OPD tablets, Sigma) and the plates were read at 450 nm. As a negative control, no kinase and no peptide reactions were used. The biotinylated phosphopeptide […]p[…] (SEQ ID NO: 65) was used as a positive control.

SMILES strings stand for the structures.

Chain of WEE1 (P30291 whole entry): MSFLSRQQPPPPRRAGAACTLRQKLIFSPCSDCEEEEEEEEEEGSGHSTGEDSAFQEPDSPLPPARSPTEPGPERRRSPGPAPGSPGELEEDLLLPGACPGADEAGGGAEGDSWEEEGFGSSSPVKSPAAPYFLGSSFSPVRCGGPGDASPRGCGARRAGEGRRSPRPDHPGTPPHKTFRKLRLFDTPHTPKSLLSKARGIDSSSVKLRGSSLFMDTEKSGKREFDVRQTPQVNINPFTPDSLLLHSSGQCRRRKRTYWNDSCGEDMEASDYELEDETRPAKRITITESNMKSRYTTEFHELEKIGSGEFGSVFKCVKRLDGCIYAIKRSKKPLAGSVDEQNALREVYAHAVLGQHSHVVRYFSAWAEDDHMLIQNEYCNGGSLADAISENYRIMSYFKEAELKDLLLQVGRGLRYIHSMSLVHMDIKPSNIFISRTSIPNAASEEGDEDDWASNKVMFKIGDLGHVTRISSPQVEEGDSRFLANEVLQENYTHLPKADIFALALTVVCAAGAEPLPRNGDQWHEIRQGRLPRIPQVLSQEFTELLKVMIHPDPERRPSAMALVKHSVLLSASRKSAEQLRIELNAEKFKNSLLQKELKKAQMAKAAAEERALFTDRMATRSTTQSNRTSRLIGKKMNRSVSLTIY

With `C=CCn1c(=O)c2cnc(Nc3ccc(N4CCN(C)CC4)cc3)nc2n1-c1cccc(C(C)(C)O)n1` [MK-1775], the “occurrence of pTyr37-H2B at site I and II” value in assay [1] is “significantly reduced”. Further, on WEE1, the “H4 Tyr88-phosphorylation by WEE1” value is listed as “significantly decreased”.

The record behind these values is patent US9594084B2, “Phosphorylation of histones and uses thereof” (H. LEE MOFFITT CANCER CENTER AND RESEARCH INSTITUTE, priority 2012, dated 2017).
